The source of these data is patent US20050282743A1, “Molecular interactions in cells” (Arbor Vita Corporation, priority 2001, published 2005).

Holding throughout (assay): G' assay (10 uM PL peptide), results of TABLE 7 and TABLE 12
What all share (format): binding

Assay [1] has as its target T1, PDZ protein (GST-PDZ fusion) (Homo sapiens, UniProt Q8TEW0).
T1 construct: made in house; host or cells: E. coli (DH5alpha, BL21 or JM109)
Particulars: PDZ PAR3, PDZ Domain 3. The essentials:
(§1)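 Biotinylated PL peptides at 10 uM (vs 20 uM in G^0 assay) bound to GST-PDZ fusions; PDZ protein at 5 ug/ml unless another concentration listed. Bound peptide read as A450 nm, classified 0–5 (0 = A450 0; 5 = A450 >4 repeated).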

The target of assay [2] is T2, PDZ protein (GST-PDZ fusion) (Homo sapiens, UniProt O15085).
T2 construct: made in house; host or cells: E. coli (DH5alpha, BL21 or JM109)
T2 sequence (O15085 whole entry, the tested form may be a part): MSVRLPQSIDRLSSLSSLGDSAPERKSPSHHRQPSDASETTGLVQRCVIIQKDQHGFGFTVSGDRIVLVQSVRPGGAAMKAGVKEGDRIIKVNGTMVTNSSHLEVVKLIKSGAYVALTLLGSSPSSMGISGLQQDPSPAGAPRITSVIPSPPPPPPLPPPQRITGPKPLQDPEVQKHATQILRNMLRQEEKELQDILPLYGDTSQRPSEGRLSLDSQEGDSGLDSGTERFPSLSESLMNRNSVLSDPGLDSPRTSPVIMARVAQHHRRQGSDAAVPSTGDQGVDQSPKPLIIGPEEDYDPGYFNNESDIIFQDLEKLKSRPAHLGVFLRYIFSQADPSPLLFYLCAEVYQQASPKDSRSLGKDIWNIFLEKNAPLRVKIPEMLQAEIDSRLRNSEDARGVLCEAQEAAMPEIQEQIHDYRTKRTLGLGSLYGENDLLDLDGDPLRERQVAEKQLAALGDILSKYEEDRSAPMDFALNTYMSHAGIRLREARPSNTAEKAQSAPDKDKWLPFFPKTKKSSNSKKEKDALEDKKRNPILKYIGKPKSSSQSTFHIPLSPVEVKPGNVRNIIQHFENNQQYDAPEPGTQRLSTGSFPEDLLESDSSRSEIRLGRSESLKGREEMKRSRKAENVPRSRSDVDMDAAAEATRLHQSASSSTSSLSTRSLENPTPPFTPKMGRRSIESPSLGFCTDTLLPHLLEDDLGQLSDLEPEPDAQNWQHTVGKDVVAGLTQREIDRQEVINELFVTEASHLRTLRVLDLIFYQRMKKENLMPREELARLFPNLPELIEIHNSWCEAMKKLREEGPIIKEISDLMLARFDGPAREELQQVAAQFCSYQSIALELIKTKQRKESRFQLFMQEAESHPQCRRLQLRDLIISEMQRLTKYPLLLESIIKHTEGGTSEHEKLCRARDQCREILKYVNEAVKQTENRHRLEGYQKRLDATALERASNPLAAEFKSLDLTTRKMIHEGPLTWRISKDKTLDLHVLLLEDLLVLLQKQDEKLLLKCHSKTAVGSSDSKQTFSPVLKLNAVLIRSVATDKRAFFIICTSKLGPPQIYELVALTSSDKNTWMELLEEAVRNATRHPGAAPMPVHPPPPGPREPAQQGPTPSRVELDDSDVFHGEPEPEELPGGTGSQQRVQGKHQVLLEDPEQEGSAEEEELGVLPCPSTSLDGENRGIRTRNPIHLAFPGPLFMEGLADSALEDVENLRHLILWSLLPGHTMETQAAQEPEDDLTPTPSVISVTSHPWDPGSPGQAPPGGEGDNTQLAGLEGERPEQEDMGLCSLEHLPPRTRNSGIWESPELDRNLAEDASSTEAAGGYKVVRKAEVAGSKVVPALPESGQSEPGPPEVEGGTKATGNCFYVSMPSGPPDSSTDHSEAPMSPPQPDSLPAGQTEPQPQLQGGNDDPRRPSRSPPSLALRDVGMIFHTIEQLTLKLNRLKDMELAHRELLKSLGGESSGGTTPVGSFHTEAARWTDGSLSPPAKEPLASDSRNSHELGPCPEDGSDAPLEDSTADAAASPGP
The settings on record: PDZ KIAA0380, PDZ Domain 1. The gist of the method:
as §1

The target of assay [3] is T3, PDZ protein (GST-PDZ fusion) (Homo sapiens, UniProt O14908).
T3 construct: made in house; host or cells: E. coli (DH5alpha, BL21 or JM109)
T3 sequence (O14908 1-333): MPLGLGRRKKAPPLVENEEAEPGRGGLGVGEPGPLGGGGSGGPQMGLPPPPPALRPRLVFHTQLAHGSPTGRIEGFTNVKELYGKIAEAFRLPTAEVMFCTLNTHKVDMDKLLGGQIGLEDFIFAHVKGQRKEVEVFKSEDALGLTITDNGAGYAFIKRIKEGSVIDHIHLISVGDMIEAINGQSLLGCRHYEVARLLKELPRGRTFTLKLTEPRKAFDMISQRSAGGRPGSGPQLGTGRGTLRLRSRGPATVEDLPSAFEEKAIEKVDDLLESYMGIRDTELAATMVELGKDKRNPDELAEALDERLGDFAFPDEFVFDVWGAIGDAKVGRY
The settings on record: PDZ TAX IP2, PDZ Domain 1. The gist of the method:
as §1

The target of assay [4] is T4, PDZ protein (GST-PDZ fusion) (Homo sapiens, UniProt Q96JY6).
T4 construct: made in house; host or cells: E. coli (DH5alpha, BL21 or JM109)
T4 sequence (Q96JY6 1-352): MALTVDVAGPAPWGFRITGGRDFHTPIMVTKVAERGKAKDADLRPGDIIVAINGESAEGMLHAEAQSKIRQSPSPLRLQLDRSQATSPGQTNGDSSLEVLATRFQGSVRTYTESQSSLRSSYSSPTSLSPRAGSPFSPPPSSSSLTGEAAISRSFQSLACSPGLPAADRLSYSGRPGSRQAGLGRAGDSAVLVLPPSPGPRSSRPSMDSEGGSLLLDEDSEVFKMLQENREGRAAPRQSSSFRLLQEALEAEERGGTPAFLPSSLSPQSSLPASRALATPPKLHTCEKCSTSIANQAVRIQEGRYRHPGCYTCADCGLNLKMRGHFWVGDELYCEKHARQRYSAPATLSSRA
The settings on record: PDZ LIM-Mystique, PDZ Domain 1. The essentials:
as §1

Assay [5] concerns the target T5, PDZ protein (GST-PDZ fusion) (Homo sapiens, UniProt Q9HD26).
T5 construct: made in house; host or cells: E. coli (DH5alpha, BL21 or JM109)
The settings on record: PDZ PIST, PDZ Domain 1. The gist of the method:
as §1

Peptide text beside a SMILES is read from it. * marks the point of attachment. Biotin = O=C1N[C@H]2[C@H](CS[C@H]2CCCCC(=O)*)N1

T1 sequence (Q8TEW0 whole entry, the tested form may be a part): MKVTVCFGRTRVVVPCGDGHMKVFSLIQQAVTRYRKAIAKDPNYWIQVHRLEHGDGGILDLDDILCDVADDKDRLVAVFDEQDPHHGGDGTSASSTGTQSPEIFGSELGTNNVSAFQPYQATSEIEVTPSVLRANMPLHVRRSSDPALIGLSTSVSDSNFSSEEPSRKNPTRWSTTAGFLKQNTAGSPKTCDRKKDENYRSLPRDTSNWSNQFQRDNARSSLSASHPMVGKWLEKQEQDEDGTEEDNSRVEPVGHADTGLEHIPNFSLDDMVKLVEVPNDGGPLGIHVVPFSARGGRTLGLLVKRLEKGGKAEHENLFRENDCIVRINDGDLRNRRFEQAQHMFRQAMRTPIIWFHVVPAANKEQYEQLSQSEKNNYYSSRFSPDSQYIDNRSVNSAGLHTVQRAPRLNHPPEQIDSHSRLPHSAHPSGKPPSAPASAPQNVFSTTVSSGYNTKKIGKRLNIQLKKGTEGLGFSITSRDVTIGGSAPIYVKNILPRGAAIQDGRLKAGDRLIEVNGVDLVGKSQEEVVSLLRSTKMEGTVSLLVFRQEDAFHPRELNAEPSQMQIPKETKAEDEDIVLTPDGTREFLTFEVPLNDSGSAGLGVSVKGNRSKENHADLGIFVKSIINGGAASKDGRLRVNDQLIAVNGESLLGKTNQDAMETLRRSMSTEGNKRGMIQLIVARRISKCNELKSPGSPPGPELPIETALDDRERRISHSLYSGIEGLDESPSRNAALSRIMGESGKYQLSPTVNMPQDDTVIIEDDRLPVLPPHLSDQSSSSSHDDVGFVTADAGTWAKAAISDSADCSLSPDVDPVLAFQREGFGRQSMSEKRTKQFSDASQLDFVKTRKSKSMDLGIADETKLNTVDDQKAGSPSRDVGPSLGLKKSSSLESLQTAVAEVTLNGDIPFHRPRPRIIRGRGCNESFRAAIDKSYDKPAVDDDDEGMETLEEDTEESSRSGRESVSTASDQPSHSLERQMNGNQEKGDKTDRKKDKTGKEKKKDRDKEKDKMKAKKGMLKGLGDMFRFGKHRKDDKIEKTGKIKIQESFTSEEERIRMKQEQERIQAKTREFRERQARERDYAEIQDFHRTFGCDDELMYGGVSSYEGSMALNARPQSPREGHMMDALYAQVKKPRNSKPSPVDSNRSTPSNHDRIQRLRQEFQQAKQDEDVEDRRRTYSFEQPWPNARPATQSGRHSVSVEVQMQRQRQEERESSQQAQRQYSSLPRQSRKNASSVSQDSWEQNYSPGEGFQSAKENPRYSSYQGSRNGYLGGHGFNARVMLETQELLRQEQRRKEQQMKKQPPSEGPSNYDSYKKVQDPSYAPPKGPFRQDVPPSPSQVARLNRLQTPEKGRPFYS

With `CC(C)C[C@H](NC(=O)[C@H](CC(=O)O)NC(=O)[C@H](CO)NC(=O)[C@H](CCC(=O)O)NC(=O)CNC(=O)[C@H](Cc1ccc(O)cc1)NC(=O)[C@H](CC(C)C)NC(=O)[C@H](C)NC(=O)[C@H](CO)NC(=O)[C@H](CO)NC(=O)[C@H](Cc1ccccc1)NC(=O)[C@H](C)NC(=O)[C@H](C)NC(=O)[C@H](Cc1ccc(O)cc1)NC(=O)[C@H](CC(=O)O)NC(=O)[C@H](CC(C)C)NC(=O)[C@H](C)NC(=O)CNC(=O)[C@@H]1CCCN1C(=O)[C@@H](NC(=O)CCCC[C@@H]1SC[C@@H]2NC(=O)N[C@@H]21)C(C)C)C(=O)O` [a-actinin 2] (Biotin-VPGALDYAAFSSALYGESDL-OH; C-terminus assumed), the Classification in assay [1] is on record as 1 (A450 nm 0-1); in assay [2], 1 (A450 nm 0-1); in assay [3], 5 (A450 nm of 4 more than 2× repeated); in assay [4], 5 (A450 nm of 4 more than 2× repeated).
In the case of `CSCC[C@H](NC(=O)[C@H](C)NC(=O)[C@H](CCCNC(=N)N)NC(=O)CNC(=O)[C@@H](NC(=O)[C@H](Cc1c[nH]c2ccccc12)NC(=O)[C@H](CCCNC(=N)N)NC(=O)CNC(=O)CCCC[C@@H]1SC[C@@H]2NC(=O)N[C@@H]21)[C@@H](C)O)C(=O)N[C@@H](CO)C(=O)N[C@@H](C)C(=O)N[C@@H](Cc1c[nH]c2ccccc12)C(=O)N[C@@H](CCCCN)C(=O)N1CCC[C@H]1C(=O)N[C@H](C(=O)N[C@@H](CCCNC(=N)N)C(=O)N[C@@H](CCCNC(=N)N)C(=O)N[C@@H](CCC(=O)O)C(=O)N[C@H](C(=O)N[C@@H](CCC(=O)O)C(=O)N[C@H](C(=O)O)C(C)C)[C@@H](C)O)[C@@H](C)O` [HPV E6 #35 (modified)] (Biotin-GRWTGRAMSAWKPTRRETEV-OH; C-terminus assumed), the Classification was 3 (A450 nm 2-3) in assay [2], 1 (A450 nm 0-1) in assay [5], 4 (A450 nm 3-4) in assay [3] and 1 (A450 nm 0-1) in assay [4].
